Test results reported in the supplement of paper PMC10307832.

How the values were obtained:
Test in all cases: relative viability (nuclei count vs DMSO), 5 days (fraction); higher = more cells survive
[1] = compound: CC(C)(C)c1nc(-c2cccc(NS(=O)(=O)c3c(F)cccc3F)c2F)c(-c2ccnc(N)n2)s1 [Dabrafenib] + CC(=O)Nc1cccc(-n2c(=O)n(C3CC3)c(=O)c3c(Nc4ccc(I)cc4F)n(C)c(=O)c(C)c32)c1 [Trametinib] (partner 0.02 µM)
Summary of the method: (§1)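 Each reported value is a median over duplicate plates. It expresses relative viability: treated-well nuclei count divided by vehicle-well nuclei count. Lung cancer cell lines in 1536-well plates were dosed by pin tool a day after seeding, alone with one drug or with a fixed anchor-drug dose plus five library-drug doses (not always all listed) in √10 steps, and nuclei were counted after 5 days.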

[2] = compound: NC(=O)c1ccc(N(C(N)=O)c2c(F)cccc2F)nc1-c1ccc(F)cc1F [VX-702] + CC1(C)CCC(c2ccc(Cl)cc2)=C(CN2CCN(c3ccc(C(=O)NS(=O)(=O)c4ccc(N[C@H](CCN5CCOCC5)CSc5ccccc5)c(S(=O)(=O)C(F)(F)F)c4)cc3)CC2)C1 [Navitoclax] (partner 0.5 µM)
Summary of the method: as §1

[3] = compound: CC(C)(C)c1nc(-c2cccc(NS(=O)(=O)c3c(F)cccc3F)c2F)c(-c2ccnc(N)n2)s1 [Dabrafenib]
Summary of the method: (§2)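 Viability here means nuclei in treated wells divided by nuclei in vehicle wells, reported as the median across plates. Only plates with control CV below 25% and at least one doubling passed. Lung cancer cell lines in 1536-well plates were exposed to five √10-spaced library-drug doses for 5 days and counted from 4× Hoechst images in MetaXpress.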

[4] = compound: NC(=O)c1ccc(N(C(N)=O)c2c(F)cccc2F)nc1-c1ccc(F)cc1F [VX-702]
Summary of the method: as §2

Row | Cell Line | relative viability ([1]; first compound 0.003 µM) | relative viability ([1]; first compound 0.009487 µM) | relative viability ([1]; first compound 0.03 µM) | relative viability ([1]; first compound 0.09487 µM) | relative viability ([1]; first compound 0.3 µM) | relative viability ([2]; first compound 0.02 µM) | relative viability ([2]; first compound 0.2 µM) | relative viability ([2]; first compound 0.6325 µM) | relative viability ([2]; first compound 2 µM) | relative viability ([3]; 0.003 µM) | relative viability ([3]; 0.009487 µM) | relative viability ([3]; 0.03 µM) | relative viability ([3]; 0.09487 µM) | relative viability ([3]; 0.3 µM) | relative viability ([4]; 0.02 µM) | relative viability ([4]; 0.2 µM) | relative viability ([4]; 0.6325 µM) | relative viability ([4]; 2 µM)
1 | HCC-366 | 0.324 | 0.348 | 0.225 | 0.374 | 0.396 | 0.971 | 0.988 | 1.1 | 0.918 | 0.734 | 1.04 | 0.725 | 0.993 | 1.11 | 1.06 | 0.969 | 0.98 | 0.587
2 | HCC-827 | 0.511 | 0.53 | 0.522 | – | 0.616 | 1.01 | 0.988 | 0.891 | 0.939 | 0.916 | 1.08 | 0.996 | – | 1.02 | 1.03 | 1.08 | 1.09 | 0.647
3 | HOP-62 | 0.352 | 0.41 | 0.36 | 0.429 | 0.469 | 1.28 | 0.848 | 1.03 | 1.15 | 0.778 | 1.02 | 1.03 | 0.685 | 0.812 | 1.06 | 0.988 | 1.09 | 1.05
4 | IA-LM | – | – | – | – | – | 0.928 | 0.853 | 0.658 | 0.905 | 1 | 0.84 | 0.984 | 0.58 | 0.405 | 0.956 | 0.896 | 0.92 | 1.04
5 | LC-2-ad | 0.891 | 0.931 | 0.901 | 0.862 | 0.992 | 0.467 | 0.565 | 0.475 | 0.561 | 0.79 | 1.08 | 1 | 0.892 | 1.06 | 1.04 | 1.01 | 1.05 | 1.06
6 | LCLC-97TM1 | – | 0.225 | 0.193 | 0.21 | 0.205 | 0.379 | 0.458 | 0.344 | 0.489 | – | 0.914 | 1.01 | 0.508 | 0.756 | 0.938 | 0.982 | 0.996 | 0.937
7 | LCLC-103H | 0.635 | 0.707 | 0.614 | 0.684 | 0.701 | – | – | – | – | 0.883 | 1.11 | 0.919 | 1.01 | 1.07 | 0.98 | 0.999 | 0.952 | 1.13
8 | LK-2 | 0.692 | 0.925 | 0.473 | 0.774 | 0.934 | 0.834 | 0.811 | 0.64 | 0.781 | 0.975 | 1.04 | – | 0.913 | 1.05 | 1.02 | 0.84 | 0.811 | 1.04
9 | LOU-NH91 | – | 0.774 | 0.792 | 0.782 | 0.837 | 0.638 | 0.638 | 0.643 | 0.422 | – | 1.07 | 0.905 | 0.935 | 1.09 | 1 | 0.836 | 0.971 | 0.783
10 | LU99A | 0.453 | 0.384 | 0.508 | 0.529 | 0.574 | 0.857 | 0.878 | 0.813 | 0.698 | 0.968 | 1.06 | 0.917 | 0.88 | 0.801 | 1.05 | 0.912 | 1.02 | 0.781
